Converted amounts (≈) assume the structure as drawn. Where two headings read alike, the source gives them in different places.
Legend:
Mouse Plasma Conc. = type: in vivo; details: given as 'Up to'
[1] = In Vitro Metabolism in Human Liver Microsomes (predicted EH); type: in vitro ADME
Procedure: (§1) [formula] [formula] [formula] [formula] • Cbrain=concentration of compound in brain parenchyma (ng/g) • Cbrain homogenate=concentration of compound in brain homogenate (ng/g) • Cbrain vasculature=concentration of compound in brain vasculature (ng/g) • CPlasma=concentration of compound in plasma (ng/mL) • VP=brain plasma volume (26 μL/g for male Swiss Outbred mice) • B:P=brain-to-plasma ratio • Papp=apparent permeability coefficient of compound permeating the blood-brain barrier • ∫0^tcplasmadt=concentration of compound in plasma from time zero to 5 min post-dose (equivalent to the 5 min post-dose plasma concentration, assuming no back diffusion from brain to plasma within this time period) • A=surface area of capillaries forming the blood-brain barrier (240 cm^2/g brain weight for mouse) Assay 7 In Vitro Metabolism in Human Liver Microsomes
The solubility of test compounds and their recovery from the incubation media were confirmed prior to the metabolic assay. Metabolic stability was performed by incubating test compounds individually (1 μM) at 37° C. with human liver microsomes. The metabolic reaction was initiated by the addition of a NADPH-regenerating system (i.e. NADPH is the cofactor required for CYP450-mediated metabolism) and quenched at various time points over the incubation period by the addition of acetonitrile. Additional samples with dual co-factors, i.e. NADPH and UDPGA (the co-factor for glucuronidation), were also included in the incubation for the qualitative assessment of the potential for glucuronide formation. The relative loss of parent compound and formation of metabolic products was monitored by LC/MS using a Waters/Micromass LCT mass spectrometer.
Test compound concentration versus time data were fitted to an exponential decay function to determine the first-order rate constant for substrate depletion. In cases where clear deviation from first-order kinetics was evident, only the initial linear portion of the profile was utilised to determine the degradation rate constant (k). Each substrate depletion rate constant was then used to calculate: [1] degradation half-life, [2] an in vitro intrinsic clearance value (CLint,in vitro); [3] a predicted in vivo intrinsic clearance value (CLint); and [4] a predicted in vivo hepatic extraction ratio (EH).
[formula] • The following scaling parameters were assumed for estimating metabolic stability parameters:
Predictions of In Vivo Hepatic Clearance and Hepatic Extraction Ratios:
The microsome-predicted hepatic extraction ratios (EH) obtained based on the relative rate of degradation of the test compound in vitro, lead to test compounds being classified as low (<0.3), intermediate (0.3-0.7), high (0.7-0.95) or very high (>0.95) extraction compounds. The assumptions underlying this classification are stated below.
The use of hepatic microsomes in the prediction of the in vivo hepatic clearance and extraction ratio is based on a number of assumptions (Obach, 1999; Drug Metab. Dispos. 27: 1350-1359):
1) Hepatic (microsomal) metabolic clearance is the major clearance mechanism for compounds in vivo;
2) NADPH-dependent oxidative metabolism predominates over other metabolic routes (i.e. direct conjugative metabolism, reduction, hydrolysis, etc.); and,
3) Rates of metabolism and enzyme activities in vitro are truly reflective of those that exist in vivo.
Calculations of intrinsic clearance are based on the “in vitro […] method” (Obach, 1999), which has two further inherent assumptions:
1) The substrate concentration employed is well below the apparent KM for substrate turnover; and,
2) There is no significant product inhibition, nor is there any mechanism based inactivation of enzyme.
Data should be considered within these terms of reference.

CYP2D6 = target: T1, CYP2D6 (Homo sapiens, UniProt P10635); experiment: CYP450 inhibition, specific substrate approach in human liver microsomes: CYP2D6; type: in vitro ADME
T1 construct: using a specific substrate approach in human liver microsomes; from tissue; host or cells: human liver microsomes
T1 sequence (P10635 whole entry): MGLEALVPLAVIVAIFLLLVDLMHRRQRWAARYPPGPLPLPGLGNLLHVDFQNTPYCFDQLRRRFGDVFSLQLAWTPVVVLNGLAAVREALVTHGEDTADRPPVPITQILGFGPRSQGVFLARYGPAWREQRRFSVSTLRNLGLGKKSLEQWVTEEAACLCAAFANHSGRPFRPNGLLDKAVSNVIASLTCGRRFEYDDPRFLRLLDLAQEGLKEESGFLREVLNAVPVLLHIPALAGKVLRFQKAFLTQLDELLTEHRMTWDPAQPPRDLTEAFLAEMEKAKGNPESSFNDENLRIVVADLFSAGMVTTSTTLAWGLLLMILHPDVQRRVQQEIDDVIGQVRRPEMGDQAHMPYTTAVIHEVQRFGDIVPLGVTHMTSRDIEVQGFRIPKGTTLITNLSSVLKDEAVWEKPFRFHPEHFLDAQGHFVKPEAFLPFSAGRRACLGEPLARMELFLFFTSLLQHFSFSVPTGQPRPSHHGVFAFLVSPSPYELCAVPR
Procedure: (§2) CYP450 Isoform Inhibition Using a Specific Substrate Approach
(§3) The present study is a “Tier 2” screen to assess potential enzyme inhibition at a test compound concentration of 20 μM using a specific substrate approach in human liver microsomes.
(§4) The substrate specific enzyme inhibition study relies on the formation of a metabolite that is mediated by a specific CYP450 isoform using human liver microsomes. In the current study, the following reactions were monitored to assess interactions with specific CYP450 isoforms. A known inhibitor of each isoform was included in each assay as a positive control. The following IC50 values have been reported in the literature using equivalent assay conditions for each CYP450 isoform:
(§5) The reaction was initiated by the addition of an NADPH-regenerating system and was quenched by the addition of acetonitrile prior to determining the concentration (and apparent rate of formation) of the specific metabolite by LC/MS.
(§6) The IC50 was deemed to be the concentration at which there was a 50% reduction in the amount of metabolite formed, relative to the maximal extent of formation.

[2] = Equilibrium Solubility (pH 2-7); type: physicochemical; details: for solubility thermodynamic: aqueous buffer, thermodynamic from solid
[3] = Blood Brain Barrier Penetration (brain to plasma ratio); type: in vivo; details: male, Swiss Outbred, mouse, brain and plasma; for Kp at 5 min / Kp at 1 h: 150 μg/mouse, IV, read-out: Brain to Plasma Ratio (IV) (B:P); for Kp at 1 h: at 60 min; for Kp at 0.5 h / Kp at 4 h: Oral dosing, read-out: Brain to Plasma Ratio (B:P); for Kp at 0.5 h: at 30 min; for Kp at 4 h: at 240 min
Source text: [formula] [formula] [formula] • CLtotal=total plasma clearance after IV administration • Vdβ=volume of distribution during the elimination phase after IV administration • BA=oral bioavailability • AUCIV=area under the plasma concentration versus time profile from time zero to infinity after IV administration • AUCoral=area under the plasma concentration versus time profile from time zero to infinity after oral administration • β=terminal elimination rate constant after IV administration Assay 6. Blood Brain Barrier Penetration
A bolus injection of each of the test compound (50 μL of a 3 mg/mL aqueous solution containing 40% propylene glycol and 10% ethanol) was administered by tail vein injection to male Swiss Outbred mice (5-7 weeks of age). Alternatively, test compound was orally administered to mice according to standard procedures known to the skilled person.
[…] Mice were anaesthetised approximately 3-4 min prior to blood and brain harvest with an intraperitoneal injection of ketamine and xylazine (133 mg/kg and 10 mg/kg, respectively). The whole brain was placed into pre-weighed polypropylene vials and stored at −20° C. until analysis. On the day of analysis, the whole brain was homogenised in 3 parts of water (on ice to reduce the potential for ex vivo brain degradation) and an aliquot of the brain homogenate and plasma was analysed for compound concentration by LCMS. Standards were prepared by spiking blank brain homogenate and both samples and standards were processed by adding acetonitrile to the tissue homogenate, centrifuging and injecting an aliquot of the supernatant onto the LCMS.
To ensure complete recovery of compound from the brain, brain homogenate was spiked with compound (in 50% acetonitrile:50% water) to a nominal concentration of 500 ng/mL. The concentration of compound in the supernatant was then determined by LCMS and compared to the supernatant concentration when compound was added following precipitation with acetonitrile.
as §1

CYP2C9 = target: T2, CYP2C9 (Homo sapiens, UniProt P11712); experiment: CYP450 inhibition, specific substrate approach in human liver microsomes: CYP2C9; type: in vitro ADME
T2 construct: using a specific substrate approach in human liver microsomes; from tissue; host or cells: human liver microsomes
T2 sequence (P11712 whole entry): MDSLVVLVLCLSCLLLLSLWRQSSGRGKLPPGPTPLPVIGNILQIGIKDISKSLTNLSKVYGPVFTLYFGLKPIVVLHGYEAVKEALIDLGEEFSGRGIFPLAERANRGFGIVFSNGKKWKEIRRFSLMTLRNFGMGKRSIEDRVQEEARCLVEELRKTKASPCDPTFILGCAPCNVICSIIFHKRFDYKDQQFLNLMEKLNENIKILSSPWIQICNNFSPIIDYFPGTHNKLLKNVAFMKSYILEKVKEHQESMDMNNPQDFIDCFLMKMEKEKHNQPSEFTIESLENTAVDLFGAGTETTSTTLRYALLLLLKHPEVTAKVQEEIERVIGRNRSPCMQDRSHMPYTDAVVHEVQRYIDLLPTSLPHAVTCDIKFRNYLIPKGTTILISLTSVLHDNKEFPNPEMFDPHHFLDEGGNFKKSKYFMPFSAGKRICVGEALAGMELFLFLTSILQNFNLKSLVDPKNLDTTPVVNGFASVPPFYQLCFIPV
Procedure: as §2, §3, §4, §5, §6

| Structure (SMILES) | Mouse Plasma Conc. (Mouse Plasma Conc.) [ng/mL] | Metabolism (Predicted EH), Microsomes: Human [1] | IC50 (CYP2D6; human, liver microsomes, probe dextromethorphan 3 μM) [µM] | pH dependence of equilibrium solubility [2] | solubility thermodynamic [2] [µg/mL] | Kp at 5 min [3] | Kp at 1 h [3] | IC50 (CYP2C9) [µM] | IC50 (CYP2D6) [µM] | Kp at 0.5 h [3] | Kp at 4 h [3] |
| --- | --- | --- | --- | --- | --- | --- | --- | --- | --- | --- | --- |
| CNCc1nc2c(O)c(Cl)cc(Cl)c2c(=O)n1C [Compound F4161] | ≤ 510.4 | Human <0.2 | 40 | pH dependent | 196 to 746 (≈ 0.68 to 2.59 mM) | – | – | – | – | – | – |
| CN(C)Cc1nc2c(O)c(Cl)cc(Cl)c2c(=O)n1CC1CC1 [Compound F4267] | ≤ 1166.6 | Human <0.31 | – | pH dependent | 393 to 1700 (≈ 1.15 to 4.98 mM) | 3.46 | 2.02 | > 30 | 7.4 | – | – |
| CCn1c(CN(C)C)nc2c(O)c(Cl)cc(Cl)c2c1=O.Cl [Compound F4268] | ≤ 975.9 | Human <0.2 | – | not pH dependent | 3810 to 10200 | 2.96 | 2.63 | > 20 | > 20 | – | – |
| CN(C)Cc1nc2c(O)c(Cl)cc(Cl)c2c(=O)n1C [Compound F4269, 5,7-Dichloro-2-(dimethylamino)methyl-8-hydroxy-3-methylquinazolin-4(3H)-one] | ≤ 492.1 | Human <0.2 | – | pH dependent | 166 to 2670 (≈ 0.549 to 8.84 mM) | 2.96 | 2.12 | > 30 | > 30 | – | – |
| CCN(CC)Cc1nc2c(O)c(Cl)cc(Cl)c2c(=O)n1CC1CC1 [Compound F4385] | ≤ 9074 | Human <0.2 | – | pH dependent | 683 to 1660 (≈ 1.84 to 4.49 mM) | – | – | > 30 | 5.1 | 0.31 | 0.42 |
| C#CCN(C)Cc1nc2c(O)c(Cl)cc(Cl)c2c(=O)n1CC1CC1 [Compound F4387] | ≤ 942.7 | 0.75 | – | – | – | 0.65 | 0.29 | – | – | – | – |
| Br.CCn1c(CNC)nc2c(O)c(Cl)cc(Cl)c2c1=O [Compound F4486] | ≤ 1115 | – | – | – | – | – | – | – | – | 0.23 | 0.22 |
| CCNCc1nc2c(O)c(Cl)cc(Cl)c2c(=O)n1CC [Compound F4495] | ≤ 8935 | Human <0.2 | – | not pH dependent | 2230 to 4730 (≈ 7.04 to 14.9 mM) | – | – | > 30 | 9.5 | 0.65 | 0.64 |
| Br.CCNCc1nc2c(O)c(Cl)cc(Cl)c2c(=O)n1C [Compound F4496] | ≤ 3330.8 | Human <0.2 | – | not pH dependent | 224 to 1500 | – | – | > 30 | > 30 | 1.42 | 1.97 |

Reference: US9145375B2, “Quinazolinone compounds” (PRANA BIOTECHNOLOGY LIMITED, priority 2008, dated 2015)
